# Test results published in patent US12679838B2, “Aromatic compound and application thereof in antitumor drug” (Shanghai Zheye Biotechnology Co., Ltd., priority 2020, dated 2026).
# Like-named read-outs stand apart in the source and are kept apart here.
# How the values were obtained:
# [1] = test system: MIA PaCa-2 cells; test: Cell proliferation inhibitory activity, MIA PaCa-2 (CellTiter-Glo); type: cell-based; details: for IC50: Homo sapiens, MIA PaCa-2 cells, 72 hours
# Procedure: (§1) MIA PaCa-2 cells in an exponential growth phase were digested with trypsin-EDTA and plated in a 96-well plate at 2000-3000 cells per well and incubated overnight at 37° C. with 5% CO2. A test compound was prepared as a mother liquor with DMSO, diluted with a DMEM growth medium in a concentration gradient and added to the 96-well plate and incubated for 72 hours at 37° C. in a 5% CO2 incubator. After incubation, an equal volume of CellTiter-Glo detection reagent was added to each well and incubated after shaking, and a chemiluminescence value was measured by a microplate reader, and the IC50 value for the inhibition of MIA PaCa-2 cell proliferation was fitted and calculated by GraphPad Prism software.
# [2] = test system: NCI-H358 cells; test: Cell proliferation inhibitory activity, NCI-H358 (CellTiter-Glo); type: cell-based; details: for IC50: Homo sapiens
# Procedure: as §1, with “NCI-H358” for “MIA PaCa-2”, “RPMI 1640” for “DMEM”
# The inhibitory effect of the compounds on the proliferation activity of H358 cells was tested with reference to the method of the biological test 2, and the results were as follows:
# The inhibitory effect of the compounds on the proliferation activity of NCI-H358 cells was tested with reference to the method of the biological test 2, and the results were as follows.
# [3] = test system: Langendorff isolated perfused heart; test: In vitro isolated heart perfusion test (Langendorff); design: species or system Guinea pig; details: 3.3 μM
# Text: Test method: influences of Langendorff isolated perfused heart test compounds on electrocardiogram, wherein the test method used in this test was as follows: [table] Test compounds: compound 3-2M and the compound in Example 41 of patent WO2018217651A1 (i.e., AMG510).
# [4] = test system: NCI-H358 tumor cells xenograft; test: Pharmacodynamics test of xenograft tumor model of NCI-H358 in nude mice; type: in vivo, Balb/c Nude mice; details: NCI-H358 xenograft, 100 mg/kg, QD×15 days, oral gavage
# Procedure: Animal species and number: Balb/c Nude; 6 animals per group.
# Samples for testing: compound 3-2M, compound 3-16M, TM-1, TM-3, and AMG510 (obtained by purchasing).
# Test groups: blank solvent control group; compound 3-2M (100 mg/kg, QD×15 days), compound 3-16M (100 mg/kg, QD×15 days), TM-1 (100 mg/kg, QD×15 days), TM-3 (100 mg/kg, QD×15 days); and AMG510 (100 mg/kg, QD×15 days).
# Animal model establishment: NCI-H358 tumor cells at logarithmic phase were cultured and collected in vitro, and inoculated subcutaneously on the right side of the back of nude mice at a quantity of 5×10^6 cells/each, and the tumor-bearing nude mice were randomly grouped when the tumor volume grew to 150-300 mm^3. Subsequently, each group of animals was administered and the day of the first administration was defined as day 1 of the test.
# Administration route and frequency: oral gavage; and once a day.
# General state observation: observation time and frequency: once a day; observation index or content: including, but is not limited to local administration, appearance and signs, general behavioral activities, mental status, death and other abnormal manifestations of the animals. The animals were euthanized at the end of the test.
# Tumor volume calculation: V=½×long diameter× short diameter^2 (mm^3). Tumor growth inhibition ratio TGI (%) was used to evaluate the tumor suppressive efficacy of the compounds. TGI (%)=[1-(mean tumor volume at the end of administration of the treatment group−mean tumor volume at the beginning of administration of the treatment group)/(mean tumor volume at the end of administration of the control group−mean tumor volume at the beginning of administration of the control group)]×100%.
# [5] = test system: NCI-H358; test: Cell proliferation inhibitory activity of NCI-H358, 3D model test (agarose colony formation); type: cell-based; details: Homo sapiens, NCI-H358; agarose gel, colony formation, NBT staining
# Procedure: 100 μl of high concentration agarose gel was spread in a 96-well plate as a bottom agarose gel layer; low concentration agarose and growth medium containing cells were mixed and spread on the bottom agarose gel layer, cooled and solidified and incubated overnight at 37° C.; a test compound was prepared into a mother liquor with DMSO, diluted with a RPMI 1640 growth medium in a concentration gradient, and the gradient diluted solution of the compound to be tested with different concentrations was added into 96 wells containing upper agarose gel cells, and solvent control wells were set and placed in a carbon dioxide incubator for culture. During the period, the drug-containing medium was changed to observe the cell growth. After the culture, the cells were stained with NBT, the number of colony formation was counted, and the IC50 value of the compound inhibiting cell proliferation was obtained.
# [6] = NCI-H358, 72 h, biological test 2, NCI-H358 cells, 72 hours, read-out: Cell proliferation inhibitory activity IC50 value of H358
# [7] = NCI-H358, biological test 7, NCI-H358 cells, read-out: Cell proliferation inhibitory activity IC50 value of NCI-H358
# [8] = NCI-H358, biological test 3, H358 cells, read-out: Cell proliferation inhibitory activity IC50 value of H358
compound,measurement,setting,value
C=CC(=O)N1CCN(c2nc(=O)n(-c3c(C)ccnc3C(C)C)c3nc(-c4ccccc4C=O)c(Cl)cc23)[C@@H](C)C1 [Compound 3-2],cell proliferation inhibitory activity against KRAS G12C mutant cells MIA PaCa-2 (in words),[1],significant cell proliferation inhibitory activities
same,IC50,[1],< 50 nM
same,cell proliferation inhibitory activity against KRAS G12C mutant cells NCI-H358 (in words),[2],significant cell proliferation inhibitory activities
same,IC50,[2]; [6],≤ 50 nM
[2H]C(=O)c1ccccc1-c1nc2c(cc1Cl)c(N1CCN(C(=O)C=C)C[C@@H]1C)nc(=O)n2-c1c(CC)ccnc1C(C)C [Compound 3-6B],cell proliferation inhibitory activity against KRAS G12C mutant cells NCI-H358 (in words),[2],significant cell proliferation inhibitory activities
same,IC50,[2]; [6],≤ 50 nM
same,IC50,[2]; [7],< 50 nM
C=CC(=O)N1C[C@H](C)N(c2nc(=O)n(-c3c(C)ccnc3C(C)C)c3nc(-c4c(F)cccc4C=O)c(Cl)cc23)C[C@H]1C [Compound 3-19M],cell proliferation inhibitory activity against KRAS G12C mutant cells MIA PaCa-2 (in words),[1],significant cell proliferation inhibitory activities
same,IC50,[1],< 50 nM
C=CC(=[18O])N1C[C@H](C)N(c2nc(=O)n(-c3c(C)ccnc3C(C)C)c3nc(-c4ccccc4C=O)c(Cl)cc23)[C@@H](C)C1 [Compound 3-4MIS],cell proliferation inhibitory activity against KRAS G12C mutant cells NCI-H358 (in words),[2],significant cell proliferation inhibitory activities
same,IC50,[2]; [8],< 50 nM
C=CC(=O)N1CCN(c2nc(=O)n(-c3c(C)ccnc3C(C)C)c3nc(-c4c(F)cccc4C=O)c(Cl)cc23)[C@@H](C)C1 [Compound 3-6],cell proliferation inhibitory activity against KRAS G12C mutant cells MIA PaCa-2 (in words),[1],significant cell proliferation inhibitory activities
same,IC50,[1],< 50 nM
same,cell proliferation inhibitory activity against KRAS G12C mutant cells NCI-H358 (in words),[2],significant cell proliferation inhibitory activities
[2H]C(=O)c1ccccc1-c1nc2c(cc1Cl)c(N1CCN(C(=[18O])C=C)C[C@@H]1C)nc(=O)n2-c1c(CC)ccnc1C(C)C [Compound 3-6MIS],cell proliferation inhibitory activity against KRAS G12C mutant cells NCI-H358 (in words),[2],significant cell proliferation inhibitory activities
same,IC50,[2]; [8],< 50 nM
"C=CC(=O)N1CCN(c2nc(=O)n(-c3c(C)ccnc3C(C)C)c3nc(-c4c(O)cccc4F)c(F)cc23)[C@@H](C)C1 [AMG510, reference compound]",effect on the heart rate of the isolated heart (in words),[3],significant effect on reducing the heart rate
same,HR (heart rate) change %,[3]; Guinea pig isolated heart,C (“C” represents that the heart rate decreases by greater than or equal to 15%)
same,Tumor suppression ratio (%),[4],+++ (“+++” represents that the tumor suppression ratio is between 101% and 140%)
same,IC50,[5],9.3 nM
[2H]C(=O)c1ccccc1-c1nc2c(cc1Cl)c(N1[C@@H](C)CN(C(=[18O])C=C)C[C@@H]1C)nc(=O)n2-c1c(C)ccnc1C(C)C [Compound 3-8MIS],cell proliferation inhibitory activity against KRAS G12C mutant cells NCI-H358 (in words),[2],significant cell proliferation inhibitory activities
same,IC50,[2]; [8],< 50 nM
"C=CC(=O)N1C[C@H](C)N(c2nc(=O)n(-c3c(C)ccnc3C(C)C)c3nc(-c4ccccc4C(N)=O)c(Cl)cc23)C[C@H]1C [TM-2, reference compound]",IC50,[2]; [7],> 150 nM
[2H]C(=O)c1ccccc1-c1nc2c(cc1Cl)c(N1CCN(C(=[18O])C=C)C[C@@H]1C)nc(=O)n2-c1c(C)ccnc1C(C)C [Compound 3-5MIS],cell proliferation inhibitory activity against KRAS G12C mutant cells NCI-H358 (in words),[2],significant cell proliferation inhibitory activities
same,IC50,[2]; [8],< 50 nM
C=CC(=O)N1CCN(c2nc(=O)n(-c3c(C(C)C)ncnc3C(C)C)c3nc(-c4ccccc4C=O)c(Cl)cc23)[C@@H](C)C1 [Compound 3-31],cell proliferation inhibitory activity against KRAS G12C mutant cells NCI-H358 (in words),[2],significant cell proliferation inhibitory activities
same,IC50,[2]; [7],< 50 nM
"C=CC(=O)N1CCN(c2nc(=O)n(-c3c(C)ccnc3C(C)C)c3nc(-c4ccccc4C(C)=O)c(Cl)cc23)[C@@H](C)C1 [TM-1, reference compound]",IC50,[2]; [7],50 to 150 nM
same,Tumor suppression ratio (%),[4],++ (“++” represents that the tumor suppression ratio is between 60% and 100%)
C=CC(=O)N1C[C@H](C)N(c2nc(=O)n(-c3c(C)ccnc3C(C)C)c3nc(-c4ccccc4C=O)c(Cl)cc23)C[C@H]1C [Compound 3-17M],cell proliferation inhibitory activity against KRAS G12C mutant cells MIA PaCa-2 (in words),[1],significant cell proliferation inhibitory activities
same,IC50,[1],< 50 nM
C=CC(=[18O])N1CCN(c2nc(=O)n(-c3c(CC)ccnc3C(C)C)c3nc(-c4ccccc4C=O)c(Cl)cc23)[C@@H](C)C1 [Compound 3-2MIS],cell proliferation inhibitory activity against KRAS G12C mutant cells NCI-H358 (in words),[2],significant cell proliferation inhibitory activities
same,IC50,[2]; [8],< 50 nM
[2H]C(=O)c1ccccc1-c1nc2c(cc1Cl)c(N1[C@@H](C)CN(C(=O)C=C)C[C@@H]1C)nc(=O)n2-c1c(C)ccnc1C(C)C [Compound 3-14],cell proliferation inhibitory activity against KRAS G12C mutant cells NCI-H358 (in words),[2],significant cell proliferation inhibitory activities
same,IC50,[2]; [6],≤ 50 nM
C=CC(=O)N1CCN(c2nc(=O)n(-c3c(C)ccnc3C(C)C)c3nc(-c4c(F)cccc4C=O)c(Cl)cc23)[C@@H](C)C1 [Compound 3-6P],IC50,[2]; [6],> 50 nM
[2H]C(=O)c1ccccc1-c1nc2c(cc1Cl)c(N1CCN(C(=O)C=C)C[C@]1([2H])C)nc(=O)n2-c1c(C)ccnc1C(C)C [Compound 3-28M],cell proliferation inhibitory activity against KRAS G12C mutant cells NCI-H358 (in words),[2],significant cell proliferation inhibitory activities
same,IC50,[2]; [6],≤ 50 nM
C=CC(=[18O])N1CCN(c2nc(=O)n(-c3c(C)ccnc3C(C)C)c3nc(-c4ccccc4C=O)c(Cl)cc23)[C@@H](C)C1 [Compound 3-1MIS],cell proliferation inhibitory activity against KRAS G12C mutant cells NCI-H358 (in words),[2],significant cell proliferation inhibitory activities
same,IC50,[2]; [8],< 50 nM
[2H]C(=O)c1cccc(F)c1-c1nc2c(cc1Cl)c(N1CCN(C(=[18O])C=C)C[C@@H]1C)nc(=O)n2-c1c(C)ccnc1C(C)C [Compound 3-7MIS],cell proliferation inhibitory activity against KRAS G12C mutant cells NCI-H358 (in words),[2],significant cell proliferation inhibitory activities
same,IC50,[2]; [8],< 50 nM
"C=CC(=O)N1C[C@H](C)N(c2nc(=O)n(-c3c(C)ccnc3C(C)C)c3nc(-c4ccccc4C(=O)O)c(Cl)cc23)C[C@H]1C [TM-3, reference compound]",IC50,[2]; [7],> 150 nM
same,Tumor suppression ratio (%),[4],+ (“+” represents that the tumor suppression ratio is less than 60%)
C=CC(=[18O])N1CCN(c2nc(=O)n(-c3c(C)ccnc3C(C)C)c3nc(-c4c(F)cccc4C=O)c(Cl)cc23)[C@@H](C)C1 [Compound 3-3MIS],cell proliferation inhibitory activity against KRAS G12C mutant cells NCI-H358 (in words),[2],significant cell proliferation inhibitory activities
same,IC50,[2]; [8],< 50 nM
